According to ChEMBL document CHEMBL5726765, “5-hydroxytryptamine receptor 7 activity modulators and their method of use” (2019):

Molecular target: 5-hydroxytryptamine receptor 7 (Homo sapiens, UniProt P34969)
Experiment: A similar stock of the reference compound chlorpromazine is also prepared as a positive control. Eleven dilutions (5× assay concentration) of the compound of the disclosure and chlorpromazine are prepared in the Assay Buffer by serial dilution to yield final corresponding assay concentrations ranging from 10 pM to 10 μM.A stock concentration of 5 nM [3H]LSD (lysergic acid diethyl amide) is prepared in 50 mM Tris-HCl, 10 mM MgCl2, 1 mM EDTA, pH 7.4 (Assay Buffer). Aliquots (50 μl) of radioligand are dispensed into the wells of a 96-well plate containing 100 μl of Assay Buffer. Duplicate 50-μl aliquots of the compound of the disclosure test and chlorpromazine positive control reference compound serial dilutions are added.Membrane fractions of cells expressing recombinant 5HT7 receptors (50 μL) are dispensed into each well. […]

Sequence of 5-hydroxytryptamine receptor 7 (P34969 whole entry): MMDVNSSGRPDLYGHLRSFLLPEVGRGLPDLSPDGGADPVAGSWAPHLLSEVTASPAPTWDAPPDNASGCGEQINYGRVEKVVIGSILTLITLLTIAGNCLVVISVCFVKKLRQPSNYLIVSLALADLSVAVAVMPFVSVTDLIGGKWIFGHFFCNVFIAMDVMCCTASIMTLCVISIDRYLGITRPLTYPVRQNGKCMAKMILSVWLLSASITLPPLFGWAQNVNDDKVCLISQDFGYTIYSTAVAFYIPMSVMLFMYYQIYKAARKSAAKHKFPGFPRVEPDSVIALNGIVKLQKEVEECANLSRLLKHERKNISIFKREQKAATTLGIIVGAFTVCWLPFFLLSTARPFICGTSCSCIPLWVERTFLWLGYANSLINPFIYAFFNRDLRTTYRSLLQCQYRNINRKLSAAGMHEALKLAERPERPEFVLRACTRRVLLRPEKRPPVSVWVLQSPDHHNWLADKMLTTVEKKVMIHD

Molecule `CCC1(CC)CC(CCN2CCC(C(O)(c3ccccc3)c3ccccc3)CC2)OC1=O` (stereo unspecified) has an IC50 of 3.16 µM.
